Earlier results on two molecules are cited in paper PMC5427923, “A novel CCR2 antagonist inhibits atherogenesis in apoE deficient mice by achieving high receptor occupancy” (Scientific Reports, 2017).

One data set concerns CCR2. Also on record: method as in PMID 16210643. The settings on record: single oral dose of 50 mg/kg, mice; ref [35]; cited from earlier work.
The next data set relates to apoE−/− mice. Details: method as in Aiello et al. [11]. To be noted: ref Aiello et al. [11], cited from earlier work.
The next data set relates to hCCR2b. The settings on record: hCCR2; ref Vilums et al. [24]; cited from earlier work.

In the case of `CCO[C@H]1CN(C2CCC(O)(c3ccc4c(c3)OCO4)CC2)C[C@@H]1NC(=O)CNC(=O)c1cccc(C(F)(F)F)c1` (mixture of isomers) [INCB3344], the CCR2 inhibition result in the data set with CCR2 is “approximately 75%”. The “size of early and advanced atherosclerotic lesions” value with apoE−/− mice (apoE−/− mice) is reported as “failed to decrease”. The inflammatory monocyte levels entry with apoE−/− mice (up to 6 hours after oral infusion, lost at 9 hours) was “significantly reduced”.

Turning to `CO[C@@H]1COCC[C@@H]1N[C@@H]1CC[C@@](C(=O)N2CCc3ncc(C(F)(F)F)cc3C2)(C(C)C)C1` [MK-0812, reference compound], the RT with hCCR2b is listed as 92 min.
